Measurements from US20070128217A1 (priority 2003, published 2007).

Key:
[1] = system: antibodies in sera from SARS patients (sera 1a, 1b, 2, 6, 37, 62, London, SARS-yellow, SARS-green); assay type: binding, human; parameters: Binding of serum 6 to linear peptides of protein X1 of SARS-CoV Urbani / Binding of serum 37 to linear peptides of protein X1 of SARS-CoV Urbani / Binding of serum 6 to looped/cyclic peptide (PEPSCAN-ELISA) / Binding of serum 37 to looped/cyclic peptide (PEPSCAN-ELISA) / Binding of serum 37 to looped/cyclic peptides of protein X1 of SARS-CoV Urbani / Binding of serum 6 to linear peptides of protein X2 / Binding of serum 37 to linear peptides of protein X2 / Binding of serum 37 to looped/cyclic peptides of protein X2 of SARS-CoV Urbani / Binding of serum 6 to linear peptides of protein M of SARS-CoV Urbani / Binding of serum 37 to linear peptides of protein M of SARS-CoV Urbani / Binding of serum 6 to looped/cyclic peptides of protein M of SARS-CoV Urbani / Binding of serum 37 to looped/cyclic peptides of protein M of SARS-CoV Urbani / Binding of serum 6 to linear peptides of protein X3 of SARS-CoV Urbani / Binding of serum 37 to linear peptides of protein X3 of SARS-CoV Urbani / Binding of serum 37 to looped/cyclic peptides of protein X3 of SARS-CoV Urbani / Binding of serum 6 to linear peptides of protein X4 of SARS-CoV Urbani / Binding of serum 37 to linear peptides of protein X4 of SARS-CoV Urbani / Binding of serum 37 to looped/cyclic peptides of protein X4 of SARS-CoV Urbani / Binding of serum 6 to linear peptides of protein X5 of SARS-CoV Urbani / Binding of serum 37 to linear peptides of protein X5 of SARS-CoV Urbani / Binding of serum 37 to looped/cyclic peptides of protein X5 of SARS-CoV Urbani / Binding of serum 6 to linear peptides of protein N of SARS-CoV Urbani / Binding of serum 37 to linear peptides of protein N of SARS-CoV Urbani / Binding of serum 6 to linear peptide (PEPSCAN-ELISA) / Binding of serum 1a to looped/cyclic peptides of protein N of SARS-CoV Urbani / Binding of serum 1b to looped/cyclic peptides of protein N of SARS-CoV Urbani / Binding of serum 2 to looped/cyclic peptides of protein N of SARS-CoV Urbani / Binding of serum 6 to looped/cyclic peptides of protein N of SARS-CoV Urbani / Binding of serum 37 to looped/cyclic peptides of protein N of SARS-CoV Urbani / Binding of serum 62 to looped/cyclic peptides of protein N of SARS-CoV Urbani / Binding of serum London to looped/cyclic peptides of protein N of SARS-CoV Urbani / Binding of serum SARS-green to looped/cyclic peptides of protein N of SARS-CoV Urbani: unit not given here
[2] = system: control sera (pooled serum of ten healthy LUMC hospital workers; commercial negative donor pooled serum from the Dutch bloodbank); assay type: binding, human; parameters: Binding of Control serum LUMC to linear peptides / Binding of Control serum Blood-bank to linear peptides / Binding of Control serum LUMC to looped peptides / Binding of Control Serum Blood-Bank to Looped peptides / Binding of Control serum LUMC to linear peptides of the protein M of SARS-CoV Urbani / Binding of Control serum Blood-bank to linear peptides of the protein M of SARS-CoV Urbani / Binding of Control serum LUMC to looped peptides of the protein M of SARS-CoV Urbani / Binding of Control Serum Blood-Bank to Looped peptides of the protein M of SARS-CoV Urbani: unit not given here
[3] = system: rabbit serum obtained by immunizing a rabbit with the SARS-CoV strain Frankfurt 1; assay type: binding; parameters: Binding of a rabbit serum to linear peptides / Binding of a rabbit serum to looped peptides / Rabbit serum linear peptides / Rabbit serum looped peptides / Binding of a rabbit serum to linear peptides of protein N of SARS-CoV Urbani (Rabbit serum linear peptides) / Binding of a rabbit serum to looped/cyclic peptides of protein N of SARS-CoV Urbani (Rabbit serum looped peptides): unit not given here

**Q.** How did the “Binding of serum 1a to linear peptides of protein M of SARS-CoV Urbani” value [1] turn out when AYNRYRIGNYKLNTD was run?
**A.** The value was 0.7.

**Q.** What about the “Binding of serum 1a to looped/cyclic peptides of protein M of SARS-CoV Urbani” value [1] of the same sequence?
**A.** The value was 0.8.

**Q.** What about the “Binding of serum 1b to linear peptides of protein M of SARS-CoV Urbani” value [1] of the same sequence?
**A.** The value was 0.2.

**Q.** And the “Binding of serum 1b to looped/cyclic peptides of protein M of SARS-CoV Urbani” value [1]?
**A.** The value was 0.7.

**Q.** And the “Binding of serum 2 to linear peptides of protein M of SARS-CoV Urbani” value [1]?
**A.** The value was 0.3.

**Q.** What about the “Binding of serum 2 to looped/cyclic peptides of protein M of SARS-CoV Urbani” value [1] of the same sequence?
**A.** Its value is 0.5.

**Q.** And the “Binding of serum 6 to linear peptides of protein M of SARS-CoV Urbani” value [1]?
**A.** Its value is 0.4.

**Q.** And the “Binding of serum 6 to looped/cyclic peptides of protein M of SARS-CoV Urbani” value [1]?
**A.** The value was 1.0.

**Q.** And the “Binding of serum 37 to linear peptides of protein M of SARS-CoV Urbani” value [1]?
**A.** The value was 0.5.

**Q.** What about the “Binding of serum 37 to looped/cyclic peptides of protein M of SARS-CoV Urbani” value [1] of the same sequence?
**A.** The value was 0.6.

**Q.** And the “Binding of serum 62 to linear peptides of protein M of SARS-CoV Urbani” value [1]?
**A.** The value was 0.7.

**Q.** And the “Binding of serum 62 to looped/cyclic peptides of protein M of SARS-CoV Urbani” value [1]?
**A.** The value was 0.6.

**Q.** What about the “Binding of serum London to linear peptides of protein M of SARS-CoV Urbani” value [1] of the same sequence?
**A.** Its value is 0.5.

**Q.** What about the “Binding of serum London to looped/cyclic peptides of protein M of SARS-CoV Urbani” value [1] of the same sequence?
**A.** Its value is 0.4.

**Q.** What about the “Binding of serum SARS-green to linear peptides of protein M of SARS-CoV Urbani” value [1] of the same sequence?
**A.** Its value is 0.2.

**Q.** What about the “Binding of serum SARS-green to looped/cyclic peptides of protein M of SARS-CoV Urbani” value [1] of the same sequence?
**A.** Its value is 0.2.

**Q.** And the “Binding of serum SARS-yellow to linear peptides of protein M of SARS-CoV Urbani” value [1]?
**A.** Its value is 0.0.

**Q.** What about the “Binding of serum SARS-yellow to looped/cyclic peptides of protein M of SARS-CoV Urbani” value [1] of the same sequence?
**A.** Its value is 0.6.

**Q.** And the “Binding of Control Serum Blood-Bank to Looped peptides of the protein M of SARS-CoV Urbani” value [2]?
**A.** The value was 0.6.

**Q.** And the “Binding of Control serum Blood-bank to linear peptides of the protein M of SARS-CoV Urbani” value [2]?
**A.** The value was 0.6.

**Q.** What about the “Binding of Control serum LUMC to linear peptides of the protein M of SARS-CoV Urbani” value [2] of the same sequence?
**A.** Its value is 0.3.

**Q.** What about the “Binding of Control serum LUMC to looped peptides of the protein M of SARS-CoV Urbani” value [2] of the same sequence?
**A.** The value was 0.7.

**Q.** What about the “Rabbit serum linear peptides” value [3] of the same sequence?
**A.** Its value is 0.3.

**Q.** What about the “Rabbit serum looped peptides” value [3] of the same sequence?
**A.** The value was 0.3.

**Q.** For QEEVQQELYSPLFLI, which “Binding of serum 1a to linear peptides of protein X4 of SARS-CoV Urbani” value [1] is on record?
**A.** The value was 0.8.

**Q.** And the “Binding of serum 1b to linear peptides of protein X4 of SARS-CoV Urbani” value [1]?
**A.** Its value is 0.9.

**Q.** What about the “Binding of serum 2 to linear peptides of protein X4 of SARS-CoV Urbani” value [1] of the same sequence?
**A.** Its value is 0.6.

**Q.** And the “Binding of serum 6 to linear peptides of protein X4 of SARS-CoV Urbani” value [1]?
**A.** The value was 0.6.

**Q.** What about the “Binding of serum 37 to linear peptides of protein X4 of SARS-CoV Urbani” value [1] of the same sequence?
**A.** The value was 0.8.

**Q.** And the “Binding of serum 62 to linear peptides of protein X4 of SARS-CoV Urbani” value [1]?
**A.** Its value is 0.8.

**Q.** What about the “Binding of serum London to linear peptides of protein X4 of SARS-CoV Urbani” value [1] of the same sequence?
**A.** Its value is 0.8.

**Q.** And the “Binding of serum SARS-green to linear peptides of protein X4 of SARS-CoV Urbani” value [1]?
**A.** The value was 1.0.

**Q.** What about the “Binding of serum SARS-yellow to linear peptides of protein X4 of SARS-CoV Urbani” value [1] of the same sequence?
**A.** Its value is 0.8.

**Q.** And the “Recognition of the peptide by sera of SARS-CoV infected individuals, and form (linear, looped/cyclic) in which it is recognized” value [1]?
**A.** The value was “recognized in looped/cyclic form”.

**Q.** And the “Binding of Control Serum Blood-Bank to Looped peptides” value [2]?
**A.** Its value is 0.7.

**Q.** What about the “Binding of Control serum Blood-bank to linear peptides” value [2] of the same sequence?
**A.** Its value is 0.8.

**Q.** And the “Binding of Control serum LUMC to linear peptides” value [2]?
**A.** Its value is 0.8.

**Q.** And the “Binding of Control serum LUMC to looped peptides” value [2]?
**A.** The value was 0.8.

**Q.** What about the “Rabbit serum linear peptides” value [3] of the same sequence?
**A.** The value was 0.4.

**Q.** And the “Rabbit serum looped peptides” value [3]?
**A.** Its value is 0.4.

**Q.** Which results are given for GWLVIGVAFLAVFQS?
**A.** Binding of serum 1a to linear peptides of protein X1 of SARS-CoV Urbani [1]: 0.7; Binding of serum 1a to looped/cyclic peptide (PEPSCAN-ELISA) [1]: 0.7; Binding of serum 1b to linear peptides of protein X1 of SARS-CoV Urbani [1]: 0.6; Binding of serum 1b to looped/cyclic peptide (PEPSCAN-ELISA) [1]: 0.5; Binding of serum 2 to linear peptides of protein X1 of SARS-CoV Urbani [1]: 0.5; Binding of serum 2 to looped/cyclic peptide (PEPSCAN-ELISA) [1]: 0.7; Binding of serum 6 to linear peptides of protein X1 of SARS-CoV Urbani [1]: 0.5; Binding of serum 6 to looped/cyclic peptide (PEPSCAN-ELISA) [1]: 0.4; Binding of serum 37 to linear peptides of protein X1 of SARS-CoV Urbani [1]: 0.6; Binding of serum 37 to looped/cyclic peptide (PEPSCAN-ELISA) [1]: 0.6; Binding of serum 62 to linear peptides of protein X1 of SARS-CoV Urbani [1]: 0.6; Binding of serum 62 to looped/cyclic peptide (PEPSCAN-ELISA) [1]: 0.8; Binding of serum London to linear peptides of protein X1 of SARS-CoV Urbani [1]: 0.3; Binding of serum London to looped/cyclic peptide (PEPSCAN-ELISA) [1]: 0.3; Binding of serum SARS-green to linear peptides of protein X1 of SARS-CoV Urbani [1]: 0.2; Binding of serum SARS-green to looped/cyclic peptide (PEPSCAN-ELISA) [1]: 0.4; Binding of serum SARS-yellow to linear peptides of protein X1 of SARS-CoV Urbani [1]: 0.5; Binding of serum SARS-yellow to looped/cyclic peptide (PEPSCAN-ELISA) [1]: 0.6; Binding of Control Serum Blood-Bank to Looped peptides [2]: 0.8; Binding of Control serum Blood-bank to linear peptides [2]: 0.5; Binding of Control serum LUMC to linear peptides [2]: 0.6; Binding of Control serum LUMC to looped peptides [2]: 0.7; Binding of a rabbit serum to linear peptides [3]: 0.8; Binding of a rabbit serum to looped peptides [3]: 0.6
